Publication PMC6956804, “Potent antibacterial activity of MSI-1 derived from the magainin 2 peptide against drug-resistant bacteria” (Theranostics, 2020)
In brackets after ≈: the same amount, converted by molar mass. Where a name gives a salt, the structure may show the parent alone. Read-outs that look alike come from different tables or passages of the source. Peptide text beside a SMILES is read from it.

Key:
Shigella flexneri = experiment: microbe, parasite or virus in culture; format: cell-based
Experimental: (§1) Bacterial strains were purchased from the American Type Culture Collection (ATCC). All clinical strains were isolated from human clinical specimens by the Medical Laboratory Center of Zhongda Hospital (Nanjing, Jiangsu, China). Ndm-1, tem-1, ctx-m-1, shv-1 -carrying bacteria were constructed as previously described. The recombinant bacteria carrying drug-resistant genes were prepared in LB nutrient and induced by IPTG (1 mM) for 4 h before text. Other bacterial strains were respectively prepared in MHB and Columbia Blood Agar Base.
(§2) A standard micro-broth serial dilution assay was used to measure MIC of peptides. MIC was obtained by a microplate reader at 600 nm. MBC was determined as previously described.

E. coli A2 (ESBLs (+)) = experiment: microbe, parasite or virus in culture; format: cell-based
Experimental: as §1, §2

E. coli ATCC25922 = experiment: microbe, parasite or virus in culture; format: cell-based; settings: micro-broth serial dilution, 600 nm
Experimental: as §1, §2

S. pneumoniae ATCC 49619 = experiment: microbe, parasite or virus in culture; format: cell-based
Experimental: as §1, §2

E. coli A9 (ESBLs (+)) = experiment: microbe, parasite or virus in culture; format: cell-based
Experimental: as §1, §2

[1] = test system: P. aeruginosa T6 (ESBLs (+)); experiment: microbe, parasite or virus in culture; format: cell-based
Experimental: as §1, §2

E. cloacae S3 (AmpC (+)) = experiment: microbe, parasite or virus in culture; format: cell-based
Experimental: as §1, §2

E. cloacae S1 (AmpC (+)) = experiment: microbe, parasite or virus in culture; format: cell-based
Experimental: as §1, §2

E. faecium = experiment: microbe, parasite or virus in culture; format: cell-based
Experimental: as §1, §2

S. aureus ATCC25923 = experiment: microbe, parasite or virus in culture; format: cell-based
Experimental: as §1, §2

[2] = test system: P. aeruginosa T1 (ESBLs (+)); experiment: microbe, parasite or virus in culture; format: cell-based
Experimental: as §1, §2

P. aeruginosa ATCC27853 = experiment: microbe, parasite or virus in culture; format: cell-based
Experimental: as §1, §2

S. epidermidis ATCC35984 = experiment: microbe, parasite or virus in culture; format: cell-based
Experimental: as §1, §2

E. faecalis = experiment: microbe, parasite or virus in culture; format: cell-based
Experimental: as §1, §2

E. coli A5 (ESBLs (+)) = experiment: microbe, parasite or virus in culture; format: cell-based
Experimental: as §1, §2

[3] = test system: P. aeruginosa T8 (ESBLs (+)); experiment: microbe, parasite or virus in culture; format: cell-based
Experimental: as §1, §2

[4] = test system: K. peneumoniae B9 (ESBLs (+)); experiment: organism not typed; format: cell-based
Experimental: as §1, §2

[5] = test system: K. peneumoniae B4 (ESBLs (+)); experiment: organism not typed; format: cell-based
Experimental: as §1, §2

[6] = test system: K. peneumoniae B6 (ESBLs (+)); experiment: organism not typed; format: cell-based
Experimental: as §1, §2

K. peneumoniae ATCC4352 = experiment: organism not typed; format: cell-based
Experimental: as §1, §2

MRSE N109 = experiment: microbe, parasite or virus in culture; format: cell-based, Staphylococcus epidermidis
Experimental: as §1, §2

MSSE E8 = experiment: microbe, parasite or virus in culture; format: cell-based, Staphylococcus epidermidis; settings: MSSE E8, clinical strain
Experimental: as §1, §2

MRSE N104 = experiment: microbe, parasite or virus in culture; format: cell-based, Staphylococcus epidermidis
Experimental: as §1, §2

MSSE E3 = experiment: microbe, parasite or virus in culture; format: cell-based, Staphylococcus epidermidis; settings: MSSE E3, clinical strain
Experimental: as §1, §2

MSSA D1 = experiment: microbe, parasite or virus in culture; format: cell-based, Staphylococcus aureus; settings: MSSA D1, clinical strain
Experimental: as §1, §2

MRSA M101 = experiment: microbe, parasite or virus in culture; format: cell-based, Staphylococcus aureus
Experimental: as §1, §2

MSSA D4 = experiment: microbe, parasite or virus in culture; format: cell-based, Staphylococcus aureus; settings: MSSA D4, clinical strain
Experimental: as §1, §2

MRSA M108 = experiment: microbe, parasite or virus in culture; format: cell-based, Staphylococcus aureus
Experimental: as §1, §2

PRSP P112 = experiment: microbe, parasite or virus in culture; format: cell-based, Streptococcus pneumoniae
Experimental: as §1, §2

PISP F22 = experiment: microbe, parasite or virus in culture; format: cell-based, Streptococcus pneumoniae; settings: PISP F22, clinical strain
Experimental: as §1, §2

PISP F34 = experiment: microbe, parasite or virus in culture; format: cell-based, Streptococcus pneumoniae; settings: PISP F34, clinical strain
Experimental: as §1, §2

PRSP P105 = experiment: microbe, parasite or virus in culture; format: cell-based, Streptococcus pneumoniae
Experimental: as §1, §2

G- and G+ bacteria = experiment: Antimicrobial activity, summary over the strains; format: cell-based; settings: both G- and G+ bacteria, summary of Table 1
Experimental: as §2

[7] = Staphylococcus aureus, read-out: MIC
[8] = Staphylococcus epidermidis, read-out: MIC
[9] = Staphylococcus epidermidis, MRSE
[10] = Streptococcus pneumoniae, read-out: MIC

CC1(C)S[C@@H]2[C@H](NC(=O)Cc3ccccc3)C(=O)N2[C@H]1C(=O)O [Penicillin, Penicillin G sodium salt]
MIC (Shigella flexneri): > 256 µg/mL | MIC (E. coli A2 (ESBLs (+)); Escherichia coli): > 256 µg/mL | MIC (E. coli ATCC25922; Escherichia coli, read-out: MIC): 0.25 µg/mL | MIC (S. pneumoniae ATCC 49619; Streptococcus pneumoniae, ATCC49619, read-out: MIC): 0.25 µg/mL | MIC (E. coli A9 (ESBLs (+)); Escherichia coli): > 256 µg/mL | MIC ([1]; Pseudomonas aeruginosa): > 256 µg/mL | MIC (E. cloacae S3 (AmpC (+)); Enterobacter cloacae): > 256 µg/mL | MIC (E. cloacae S1 (AmpC (+)); Enterobacter cloacae): > 256 µg/mL | MIC (E. faecium; Enterococcus faecium, read-out: MIC): > 256 µg/mL | MIC (S. aureus ATCC25923; [7]): 0.125 µg/mL | MIC ([2]; Pseudomonas aeruginosa): > 256 µg/mL | MIC (P. aeruginosa ATCC27853; Pseudomonas aeruginosa, read-out: MIC): 0.5 µg/mL | MIC (S. epidermidis ATCC35984; [8]): 0.5 µg/mL | MIC (E. faecalis; Enterococcus faecalis, read-out: MIC): > 256 µg/mL | MIC (E. coli A5 (ESBLs (+)); Escherichia coli): > 256 µg/mL | MIC ([3]; Pseudomonas aeruginosa): > 256 µg/mL | MIC [4]: > 256 µg/mL | MIC [5]: > 256 µg/mL | MIC [6]: > 256 µg/mL | MIC (K. peneumoniae ATCC4352; read-out: MIC): 1 µg/mL | MIC (MRSE N109; [9]): > 256 µg/mL | MIC (MSSE E8; [8]): 1 µg/mL | MIC (MRSE N104; [9]): > 256 µg/mL | MIC (MSSE E3; [8]): 2 µg/mL | MIC (MSSA D1; [7]): 0.5 µg/mL | MIC (MRSA M101; Staphylococcus aureus, MRSA): > 256 µg/mL | MIC (MSSA D4; [7]): 0.125 µg/mL | MIC (MRSA M108; Staphylococcus aureus, MRSA): > 256 µg/mL | MIC (PRSP P112; Streptococcus pneumoniae, PRSP): > 256 µg/mL | MIC (PISP F22; [10]): 1 µg/mL | MIC (PISP F34; [10]): 0.5 µg/mL | MIC (PRSP P105; Streptococcus pneumoniae, PRSP): > 256 µg/mL

CC[C@H](C)[C@H](NC(=O)[C@@H](N)Cc1c[nH]c2ccccc12)C(=O)N[C@@H](CCCNC(=N)N)C(=O)N[C@@H](CCCCN)C(=O)N[C@@H](Cc1ccccc1)C(=O)N[C@@H](CC(C)C)C(=O)N[C@@H](CCCCN)C(=O)N[C@@H](CCCNC(=N)N)C(=O)N[C@H](C(=O)N[C@@H](CCCCN)C(=O)N[C@@H](CCCCN)C(=O)N[C@@H](Cc1ccccc1)C(=O)NCC(N)=O)C(C)C [MSI-4] (H-WIRKFLKRVKKFG-NH2)
MIC (Shigella flexneri): 16 µg/mL (≈ 9.38 µM) | MIC (E. coli A2 (ESBLs (+)); E. coli A2 (ESBLs (+)), clinical strain): 32 µg/mL (≈ 18.8 µM) | MIC (E. coli ATCC25922): 16 µg/mL (≈ 9.38 µM) | MIC (S. pneumoniae ATCC 49619): 16 µg/mL (≈ 9.38 µM) | MIC (E. coli A9 (ESBLs (+)); E. coli A9 (ESBLs (+)), clinical strain): 32 µg/mL (≈ 18.8 µM) | MIC ([1]; P. aeruginosa T6 (ESBLs (+)), clinical strain): 32 µg/mL (≈ 18.8 µM) | MIC (E. cloacae S3 (AmpC (+)); E. cloacae S3 (AmpC (+)), clinical strain): 32 µg/mL (≈ 18.8 µM) | MIC (E. cloacae S1 (AmpC (+)); E. cloacae S1 (AmpC (+)), clinical strain): 16 µg/mL (≈ 9.38 µM) | MIC (E. faecium): 16 µg/mL (≈ 9.38 µM) | MIC (S. aureus ATCC25923): 16 µg/mL (≈ 9.38 µM) | MIC ([2]; P. aeruginosa T1 (ESBLs (+)), clinical strain): 16 µg/mL (≈ 9.38 µM) | MIC (P. aeruginosa ATCC27853): 32 µg/mL (≈ 18.8 µM) | MIC (S. epidermidis ATCC35984): 16 µg/mL (≈ 9.38 µM) | MIC (E. faecalis): 32 µg/mL (≈ 18.8 µM) | MIC (E. coli A5 (ESBLs (+)); E. coli A5 (ESBLs (+)), clinical strain): 16 µg/mL (≈ 9.38 µM) | MIC ([3]; P. aeruginosa T8 (ESBLs (+)), clinical strain): 64 µg/mL (≈ 37.5 µM) | MIC ([4]; K. peneumoniae B9 (ESBLs (+)), clinical strain): 16 µg/mL (≈ 9.38 µM) | MIC ([5]; K. peneumoniae B4 (ESBLs (+)), clinical strain): 64 µg/mL (≈ 37.5 µM) | MIC ([6]; K. peneumoniae B6 (ESBLs (+)), clinical strain): 32 µg/mL (≈ 18.8 µM) | MIC (K. peneumoniae ATCC4352): 32 µg/mL (≈ 18.8 µM) | MIC (MRSE N109; MRSE N109, clinical strain): 32 µg/mL (≈ 18.8 µM) | MIC (MSSE E8): 16 µg/mL (≈ 9.38 µM) | MIC (MRSE N104; MRSE N104, clinical strain): 32 µg/mL (≈ 18.8 µM) | MIC (MSSE E3): 16 µg/mL (≈ 9.38 µM) | MIC (range over strains) (G- and G+ bacteria): 16 to 64 µg/mL | MIC (MSSA D1): 32 µg/mL (≈ 18.8 µM) | MIC (MRSA M101; MRSA M101, clinical strain): 32 µg/mL (≈ 18.8 µM) | MIC (MSSA D4): 16 µg/mL (≈ 9.38 µM) | MIC (MRSA M108; MRSA M108, clinical strain): 64 µg/mL (≈ 37.5 µM) | MIC (PRSP P112; PRSP P112, clinical strain): 32 µg/mL (≈ 18.8 µM) | MIC (PISP F22): 32 µg/mL (≈ 18.8 µM) | MIC (PISP F34): 16 µg/mL (≈ 9.38 µM) | MIC (PRSP P105; PRSP P105, clinical strain): 64 µg/mL (≈ 37.5 µM)
